Experimental data as given in paper PMC11836120, “A small signaling domain controls PPIP5K phosphatase activity in phosphate homeostasis” (Nature Communications, 2025).

Key:
[1] = target: T1, ScVip1 phosphatase domain (ScVip1^PD E991A) (Saccharomyces cerevisiae, UniProt Q06685, E991A); assay: NMR and malachite green phosphatase assays; type: biochemical
T1 construct: gene VIP1; residues 536–1107
T1 sequence (Q06685 536-1107 E991A): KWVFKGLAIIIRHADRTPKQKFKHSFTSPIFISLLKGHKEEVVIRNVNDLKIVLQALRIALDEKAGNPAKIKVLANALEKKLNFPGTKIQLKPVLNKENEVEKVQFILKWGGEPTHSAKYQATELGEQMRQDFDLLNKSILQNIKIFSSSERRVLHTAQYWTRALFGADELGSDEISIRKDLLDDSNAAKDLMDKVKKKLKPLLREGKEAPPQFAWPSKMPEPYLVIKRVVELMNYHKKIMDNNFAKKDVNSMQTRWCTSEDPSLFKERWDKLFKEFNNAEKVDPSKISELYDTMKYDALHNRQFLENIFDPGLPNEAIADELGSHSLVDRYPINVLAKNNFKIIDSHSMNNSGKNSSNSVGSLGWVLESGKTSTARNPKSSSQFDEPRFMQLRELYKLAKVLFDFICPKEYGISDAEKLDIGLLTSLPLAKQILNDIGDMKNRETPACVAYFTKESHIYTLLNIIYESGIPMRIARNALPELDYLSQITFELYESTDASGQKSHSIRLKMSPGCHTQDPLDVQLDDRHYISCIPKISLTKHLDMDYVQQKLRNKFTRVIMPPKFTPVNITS

[2] = target: T2, ScVip1 kinase domain (ScVip1^KD) (Saccharomyces cerevisiae, UniProt Q06685); assay: co-crystal structure, […] Å (crystallized with […] ADP and […] MgCl2); type: binding
T2 construct: gene VIP1; residues 186–522

[3] = target: T3, ScVip1 kinase-phosphatase tandem domains (ScVip1^KD-PD) (Saccharomyces cerevisiae, UniProt Q06685); assay: HDX-MS, […] molar excess
T3 construct: gene VIP1
T3 sequence (Q06685 186-1107): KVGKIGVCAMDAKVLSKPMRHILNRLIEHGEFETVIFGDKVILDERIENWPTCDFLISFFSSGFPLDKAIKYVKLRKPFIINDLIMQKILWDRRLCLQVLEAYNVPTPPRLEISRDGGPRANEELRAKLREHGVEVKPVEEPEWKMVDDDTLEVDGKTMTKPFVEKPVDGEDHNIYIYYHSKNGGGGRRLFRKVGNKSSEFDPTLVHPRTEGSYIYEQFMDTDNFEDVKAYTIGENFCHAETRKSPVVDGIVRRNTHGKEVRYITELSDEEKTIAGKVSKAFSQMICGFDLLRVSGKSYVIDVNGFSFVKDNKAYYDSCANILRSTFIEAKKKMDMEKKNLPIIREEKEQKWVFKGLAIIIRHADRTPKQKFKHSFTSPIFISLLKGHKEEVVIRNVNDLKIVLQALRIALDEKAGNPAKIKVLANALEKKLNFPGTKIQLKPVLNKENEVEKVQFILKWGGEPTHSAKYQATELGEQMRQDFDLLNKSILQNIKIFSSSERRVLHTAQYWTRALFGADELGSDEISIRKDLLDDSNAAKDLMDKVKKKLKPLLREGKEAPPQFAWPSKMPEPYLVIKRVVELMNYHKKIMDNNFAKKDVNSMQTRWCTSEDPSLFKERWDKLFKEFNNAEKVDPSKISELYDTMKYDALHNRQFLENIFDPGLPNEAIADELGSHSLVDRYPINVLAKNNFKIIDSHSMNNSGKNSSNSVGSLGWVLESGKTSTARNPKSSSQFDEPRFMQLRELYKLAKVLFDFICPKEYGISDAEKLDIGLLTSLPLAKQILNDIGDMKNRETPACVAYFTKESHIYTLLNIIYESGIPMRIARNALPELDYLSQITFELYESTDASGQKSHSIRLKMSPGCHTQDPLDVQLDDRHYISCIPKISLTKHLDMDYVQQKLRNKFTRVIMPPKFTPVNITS

[4] = target: T4, ScVip1 phosphatase domain (ScVip1^PD) (Saccharomyces cerevisiae, UniProt Q06685); assay: NMR time course of […],5-InsP8 hydrolysis; type: biochemical
T4 construct: gene VIP1; residues 536–1107
T4 sequence (Q06685 536-1107): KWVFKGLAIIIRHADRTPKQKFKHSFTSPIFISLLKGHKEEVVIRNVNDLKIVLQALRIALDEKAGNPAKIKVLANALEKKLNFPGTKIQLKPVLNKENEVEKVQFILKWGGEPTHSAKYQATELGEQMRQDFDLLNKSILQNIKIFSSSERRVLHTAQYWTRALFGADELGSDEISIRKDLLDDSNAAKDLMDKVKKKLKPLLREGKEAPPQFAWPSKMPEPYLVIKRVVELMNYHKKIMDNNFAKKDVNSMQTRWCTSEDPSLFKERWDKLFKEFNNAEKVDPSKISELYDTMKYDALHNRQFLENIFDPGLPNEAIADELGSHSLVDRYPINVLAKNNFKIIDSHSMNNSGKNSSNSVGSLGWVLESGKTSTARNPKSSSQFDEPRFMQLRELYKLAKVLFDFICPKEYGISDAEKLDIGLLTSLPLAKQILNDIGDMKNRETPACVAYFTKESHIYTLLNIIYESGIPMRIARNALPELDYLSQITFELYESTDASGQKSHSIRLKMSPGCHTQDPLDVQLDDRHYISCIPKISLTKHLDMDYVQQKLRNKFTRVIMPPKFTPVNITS

[5] = substrate: O=P(O)(O)O[C@@H]1[C@@H](OP(=O)(O)O)[C@@H](OP(=O)(O)O)[C@@H](OP(=O)(O)OP(=O)(O)O)[C@H](OP(=O)(O)O)[C@H]1OP(=O)(O)O; assay: malachite green and NMR phosphatase assays, Michaelis-Menten KM; type: biochemical, Saccharomyces cerevisiae
[6] = substrate: O=P(O)(O)O[C@@H]1[C@@H](OP(=O)(O)O)[C@H](OP(=O)(O)OP(=O)(O)O)[C@@H](OP(=O)(O)O)[C@H](OP(=O)(O)OP(=O)(O)O)[C@@H]1OP(=O)(O)O; assay: as above; type: biochemical, Saccharomyces cerevisiae; conditions: phosphatase active site (RHxxR motif) and GAF-domain substrate channel

Question: Which “NMR and malachite green phosphatase assays” value [1] does the source give for `O=P(O)(O)O[C@@H]1[C@@H](OP(=O)(O)O)[C@@H](OP(=O)(O)O)[C@@H](OP(=O)(O)OP(=O)(O)O)[C@H](OP(=O)(O)O)[C@H]1OP(=O)(O)O` [1-InsP7] here?
Answer: Its value is “Glu991 to Ala mutant readily accepts 1-InsP7 as a substrate in both NMR and malachite green-based phosphatase assays”.

Question: `Nc1ncnc2c1ncn2[C@@H]1O[C@H](COP(=O)(O)OP(=O)(O)O)[C@@H](O)[C@H]1O` [ADP] was tested. Which “co-crystal structure, 1.18 Å (crystallized with 5 mM ADP and 20 mM MgCl2)” value [2] did it give?
Answer: Its value is “The structure of ScVip1^KD in complex with adenosine diphosphate revealed the typical ATP-grasp fold and substrate binding sites”.

Question: How did the “HDX-MS, 100-fold molar excess” value [3] turn out when `Nc1ncnc2c1ncn2[C@@H]1O[C@H](CO[P@](=O)(O)O[P@](=O)(O)NP(=O)(O)O)[C@@H](O)[C@H]1O` [AMPPNP, AMP-PNP] was run?
Answer: Its value is “Addition of an ATP substrate analog reveals additional protected regions in the vicinity of the active site of the kinase domain”.

Question: Which “NMR time course of 1,5-InsP8 hydrolysis” value [4] does the source give for `O=P(O)(O)O` [inorganic phosphate] here?
Answer: Its value is “ScVip1^PD is inhibited by Pi in a concentration-dependent manner, as inferred from NMR-based assays”.

B1: ScVip1 phosphatase domain (ScVip1^PD) (Saccharomyces cerevisiae S288C) (protein)
chain: KWVFKGLAIIIRHADRTPKQKFKHSFTSPIFISLLKGHKEEVVIRNVNDLKIVLQALRIALDEKAGNPAKIKVLANALEKKLNFPGTKIQLKPVLNKENEVEKVQFILKWGGEPTHSAKYQATELGEQMRQDFDLLNKSILQNIKIFSSSERRVLHTAQYWTRALFGADELGSDEISIRKDLLDDSNAAKDLMDKVKKKLKPLLREGKEAPPQFAWPSKMPEPYLVIKRVVELMNYHKKIMDNNFAKKDVNSMQTRWCTSEDPSLFKERWDKLFKEFNNAEKVDPSKISELYDTMKYDALHNRQFLENIFDPGLPNEAIADELGSHSLVDRYPINVLAKNNFKIIDSHSMNNSGKNSSNSVGSLGWVLESGKTSTARNPKSSSQFDEPRFMQLRELYKLAKVLFDFICPKEYGISDAEKLDIGLLTSLPLAKQILNDIGDMKNRETPACVAYFTKESHIYTLLNIIYESGIPMRIARNALPELDYLSQITFELYESTDASGQKSHSIRLKMSPGCHTQDPLDVQLDDRHYISCIPKISLTKHLDMDYVQQKLRNKFTRVIMPPKFTPVNITS
notes: residues 536–1107
Question: How did the Km [5] turn out when B1 was run?
Answer: The Km was 70 µM.

Question: What about the Km [6] of the same molecule?
Answer: The Km was 45 µM.
